Consider nine compounds from ChEMBL document CHEMBL1201862, “PubChem BioAssay data set” (2004).

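Briefly, cells in 96-well plates were exposed to five compound concentrations for 48 h, and endpoints were estimated by linear interpolation. GI50 is the concentration that inhibits growth by half.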 Activity calls are given as the source filed them. Cut-off read from the data, not from the text of the source: active = GI50 up to about 1.1 µM and inactive = higher.

Test systems include ACHN; DU-145; HL-60; HT-29; Hs-578T; IGROV-1; KM12; LOX IMVI; M14; MCF7; MDA-N; MOLT-4; OVCAR-3; RPMI-8226; SF-268; SF-295; SK-MEL-28; SK-MEL-2; SNB-75; SW-620.
Common to all, as to experiment: NCI-60 cell line screen, 48 h

For `COc1ccc(OCC(=N/NC(=O)c2ccncc2)/N=C/c2cccnc2)cc1`, the GI50 was 72.8 µM (inactive) with ACHN; > 100 µM (inactive) in the assay on DU-145; > 100 µM (inactive) in the assay with HL-60; > 100 µM (inactive) in the assay with HT-29; 57.9 µM (inactive) in the assay on Hs-578T; > 100 µM (inactive) with IGROV-1. In addition, the GI50 is 50.9 µM (inactive) with KM12; 89.7 µM (inactive) with LOX IMVI; 60.5 µM (inactive) with M14; 73.1 µM (inactive) in the assay on MCF7; 17 µM (inactive) in the assay on MDA-N; 69.8 µM (inactive) with MOLT-4. In addition, the GI50 is 65.8 µM (inactive) with OVCAR-3; 67.6 µM (inactive) in the assay with RPMI-8226; > 100 µM (inactive) in the assay on SF-268; 84.7 µM (inactive) in the assay on SF-295; 94.8 µM (inactive) with SK-MEL-28; > 100 µM (inactive) in the assay with SK-MEL-2. For the same compound, the GI50 in the assay with SNB-75 is 24.2 µM (inactive); in the assay with SW-620, 53.1 µM (inactive).

With `CC(C)(C)OC(=O)c1ccc(NCc2cc(O)ccc2O)cc1`, the GI50 is 1.73 µM (inactive) with ACHN; 7.78 µM (inactive) in the assay on DU-145; 0.447 µM (active) in the assay with HL-60; 13.5 µM (inactive) with HT-29; 1.69 µM (inactive) in the assay with Hs-578T; 1.77 µM (inactive) with IGROV-1. The GI50 in the assay on KM12 is 2.93 µM (inactive); in the assay with LOX IMVI, 3.88 µM (inactive); with M14, 1.94 µM (inactive); in the assay with MCF7, 3.61 µM (inactive); in the assay on MDA-N, 3.31 µM (inactive); in the assay on MOLT-4 it was 1.03 µM (active). Further, the GI50 in the assay with OVCAR-3 was 1.04 µM (active); with RPMI-8226, 0.617 µM (active); in the assay with SF-268, 3.44 µM (inactive); in the assay on SF-295 it was 7.41 µM (inactive); with SK-MEL-28, 2.03 µM (inactive); with SK-MEL-2, 4.34 µM (inactive). The values for the GI50 in the assay on SNB-75 and in the assay on SW-620 were 3.4 µM (inactive) and 3.36 µM (inactive), respectively.

With `COc1cc(Cl)c(CC(=O)c2c[nH]c3ccccc23)cc1OC`, the GI50 with ACHN is 8.55 µM (inactive); in the assay on DU-145, > 100 µM (inactive); in the assay with HL-60, > 37.2 µM (inactive); in the assay on HT-29, > 100 µM (inactive); in the assay with Hs-578T, 23.6 µM (inactive); with IGROV-1, 32.4 µM (inactive). For the same compound, the GI50 in the assay with KM12, with LOX IMVI, in the assay with M14, in the assay with MCF7, in the assay on MDA-N and in the assay on MOLT-4 was > 100 µM (inactive) throughout. Further, the GI50 is > 51.9 µM (inactive) in the assay on OVCAR-3; > 100 µM (inactive) in the assay with RPMI-8226; 13.7 µM (inactive) with SF-268; 16.1 µM (inactive) in the assay on SF-295; > 100 µM (inactive) in the assay with SK-MEL-28; 16.7 µM (inactive) with SK-MEL-2. Besides, the figures for the GI50 in the assay on SNB-75 and in the assay with SW-620 were 8.93 µM (inactive) and > 100 µM (inactive), respectively.

Take `CN1C(=O)[C@H](c2c[nH]c3ccccc23)[C@H](c2c[nH]c3ccccc23)C1=O`: the GI50 is 23.8 µM (inactive) in the assay on ACHN; 48.3 µM (inactive) in the assay on DU-145; 5.13 µM (inactive) in the assay on HL-60; 34.7 µM (inactive) in the assay on HT-29; 31.3 µM (inactive) with Hs-578T; 6.97 µM (inactive) with IGROV-1. In addition, the GI50 was 36.1 µM (inactive) in the assay on KM12; 17.7 µM (inactive) in the assay on LOX IMVI; 38.8 µM (inactive) in the assay with M14; 29.9 µM (inactive) in the assay with MCF7; 38.1 µM (inactive) with MDA-N; 21.6 µM (inactive) with MOLT-4. Besides, the GI50 was 19.5 µM (inactive) with OVCAR-3; 24.9 µM (inactive) with RPMI-8226; 33.3 µM (inactive) with SF-268; 26.1 µM (inactive) in the assay with SF-295; 33.7 µM (inactive) in the assay on SK-MEL-28; 22.3 µM (inactive) with SK-MEL-2. For the same compound, the GI50 in the assay with SNB-75 is 34.7 µM (inactive); in the assay on SW-620, 37.1 µM (inactive).

Take `COc1ccc2cc3c4cc5c(cc4cc[n+]3cc2c1OC)OCO5`: the GI50 in the assay on ACHN was 38.4 µM (inactive); with DU-145 it was 30.3 µM (inactive); in the assay on HL-60, 19.2 µM (inactive); in the assay on HT-29 it was 26.3 µM (inactive); in the assay on Hs-578T, 3.26 µM (inactive); with IGROV-1 it was 8.11 µM (inactive). Moreover, the GI50 is 2.88 µM (inactive) in the assay with KM12; 28.4 µM (inactive) in the assay with LOX IMVI; 15.2 µM (inactive) in the assay with M14; 20 µM (inactive) with MCF7; 7.52 µM (inactive) with MDA-N; 8.53 µM (inactive) with MOLT-4. Moreover, the GI50 in the assay with OVCAR-3 is 3.87 µM (inactive); with RPMI-8226, 8.13 µM (inactive); in the assay on SF-268, 2.94 µM (inactive); with SF-295, 5.53 µM (inactive); in the assay with SK-MEL-28 it was 5.33 µM (inactive); with SK-MEL-2, 22.8 µM (inactive). For the same compound, the figures for the GI50 in the assay on SNB-75 and with SW-620 were 27.8 µM (inactive) and 5.27 µM (inactive), respectively.

For the compound `BrCc1ccc2ccc3ccc(CBr)nc3c2n1`, the GI50 with ACHN was 2.1 µM (inactive); with DU-145, 8.18 µM (inactive); in the assay on HL-60, 1.38 µM (inactive); with HT-29, 1.95 µM (inactive); in the assay on Hs-578T, 17.9 µM (inactive); in the assay with IGROV-1, 4.01 µM (inactive). Further, the GI50 in the assay with KM12 is 3.61 µM (inactive); with LOX IMVI it was 1.58 µM (inactive); with M14 it was 2.85 µM (inactive); in the assay with MCF7 it was 1.88 µM (inactive); in the assay on MDA-N it was 2.74 µM (inactive); with MOLT-4, 1.65 µM (inactive). For the same compound, the GI50 is 1.72 µM (inactive) with OVCAR-3; 0.887 µM (active) with RPMI-8226; 3.27 µM (inactive) with SF-268; 10.4 µM (inactive) in the assay on SF-295; 2.81 µM (inactive) in the assay with SK-MEL-28; 3.12 µM (inactive) in the assay with SK-MEL-2. In addition, the GI50 with SNB-75 is 1.32 µM (inactive); in the assay on SW-620 it was 2.2 µM (inactive).

Turning to `COC1=C(C)C(=O)c2c(c(COC(N)=O)c3n2CC(OC(C)=O)C3OC(C)=O)C1=O` (stereo not given), the GI50 in the assay with ACHN was < 0.01 µM (active); in the assay with DU-145, 0.0251 µM (active); in the assay with HL-60, < 0.0192 µM (active); with HT-29 it was 0.036 µM (active); with Hs-578T, 0.239 µM (active); with IGROV-1 it was 0.0785 µM (active). Moreover, the GI50 with KM12 was 0.228 µM (active); with LOX IMVI, 0.0294 µM (active); in the assay with M14 it was 0.0977 µM (active); in the assay with MCF7 it was 0.0301 µM (active); in the assay with MDA-N, 0.126 µM (active); in the assay with MOLT-4, 0.242 µM (active). The GI50 in the assay with OVCAR-3 was 0.09 µM (active); in the assay with RPMI-8226 it was 0.0577 µM (active); with SF-268, 0.0766 µM (active); in the assay on SF-295, 0.0631 µM (active); with SK-MEL-28 it was 0.311 µM (active); in the assay with SK-MEL-2, 0.191 µM (active). Moreover, the results for the GI50 in the assay with SNB-75 and in the assay with SW-620 were 0.208 µM (active) and 0.0206 µM (active), respectively.

`CN1C=Cc2nccc3cc4c(c1c23)OCO4`: the GI50 in the assay on ACHN was 1.56 µM (inactive); in the assay on DU-145, 5.78 µM (inactive); in the assay with HL-60, > 20.3 µM (inactive); in the assay on HT-29 it was 2 µM (inactive); in the assay on Hs-578T, 13.5 µM (inactive); in the assay on IGROV-1, > 20.7 µM (inactive). The GI50 was 2.59 µM (inactive) in the assay on KM12; 6.25 µM (inactive) in the assay with LOX IMVI; 3.56 µM (inactive) in the assay on M14; 3.03 µM (inactive) with MCF7; 2.27 µM (inactive) with MDA-N; 0.647 µM (active) with MOLT-4. Further, the GI50 in the assay on OVCAR-3 was 5.53 µM (inactive); in the assay on RPMI-8226, 1.04 µM (active); with SF-268, 3.06 µM (inactive); in the assay with SF-295, 1.86 µM (inactive); in the assay with SK-MEL-28 it was 4.83 µM (inactive); with SK-MEL-2, 3.18 µM (inactive). The GI50 in the assay on SNB-75 was 1.49 µM (inactive); in the assay with SW-620, 3.64 µM (inactive).

Turning to `Cc1cccc(/C=N/NC(=S)N2CCCCCC2)n1`, the GI50 in the assay on ACHN was 0.142 µM (active); in the assay with DU-145, 0.254 µM (active); in the assay on HL-60 it was < 0.01 µM (active); in the assay on HT-29 it was < 0.01 µM (active); in the assay with Hs-578T, 9.59 µM (inactive); in the assay with IGROV-1 it was < 0.0399 µM (active). For the same compound, the GI50 is 0.23 µM (active) in the assay with KM12; 0.0989 µM (active) with LOX IMVI; < 0.0271 µM (active) with M14; < 0.01 µM (active) in the assay on MCF7; 0.406 µM (active) in the assay on MDA-N; < 0.01 µM (active) in the assay on MOLT-4. For the same compound, the GI50 in the assay with OVCAR-3 was < 0.01 µM (active); in the assay on RPMI-8226 it was < 0.01 µM (active); in the assay on SF-268, < 0.01 µM (active); in the assay on SF-295, 0.331 µM (active); in the assay on SK-MEL-28, 0.608 µM (active); in the assay with SK-MEL-2, 0.546 µM (active). The GI50 is 0.135 µM (active) in the assay on SNB-75 and 0.0462 µM (active) in the assay with SW-620.
